# Laboratory results as given in US6194408A, “Triazineone compounds for treating diseases due to Sarcocystis, Neospora and Toxoplasma” (Bayer Corporation, priority 1998, dated 2001).
# Several values for one entry are separate records, joined by “and”; a condition that tells them apart may be missing. Equal entries are not always repeated.
# Assays:
# Format in all cases: in vivo
# [1] = Serum drug levels after repeated doses of Toltrazuril in horses; set-up: unit not given here; details: for Toltrazuril Level (Table 5b) / Toltrazuril Level (Table 5a): per horse; for AVG Toltrazuril Level (Table 5b) / AVG Toltrazuril Level (Table 5a): average
# Protocol: (§1) This experiment was conducted in order to determine whether triazineones such as Toltrazuril can pass the blood-brain barrier. Normal horses were divided into three groups of three horses per group. Group 1 horses received Toltrazuril administered orally as a 5% suspension at a dose level of 2.5 mg/Kg. Group 2 horses received Toltrazuril administered orally as a 5% suspension at a dose level of 5.0 mg/Kg. Group 3 horses received Toltrazuril administered orally as a 5% suspension at a dose level of 7.5 mg/Kg. The dosing was repeated daily for 10 days. Blood samples were drawn at 48, 96 and 240 hours and the concentration of Toltrazuril, Toltrazuril sulfoxide and Ponazuril in the serum was measured. Ten days after the start of the treatment (Day 10), a sample of cerebral spinal fluid was removed from each horse and the concentrations of Toltrazuril, Toltrazuril Sulfoxide and Ponazuril were again measured in these samples. The concentrations of Toltrazuril, Toltrazuril Sulfoxide and Ponazuril in the serum and cerebral spinal fluid are reported in TABLES 5a and 5b.
# [2] = Cerebral spinal fluid drug levels / passage of blood-brain barrier after repeated doses of Toltrazuril in horses; details: for AVG Cerebral Spinal Fluid level (Table 5b) / AVG Cerebral Spinal Fluid level (Table 5a): CSF, average, Day 10
# Protocol: as §1
# [3] = Pharmacokinetics of a single oral dose of Toltrazuril in horses (blood levels); details: horses receiving single oral 10 mg/kg Toltrazuril
# Protocol: A pharmacokinetic study was conducted in horses comparing blood levels of Toltrazuril, Ponazuril and Toltrazuril Sulfoxide at various times post a single dose of Toltrazuril. All horses received a single dose of 10 mg/kg, which was administered orally as a suspension. Blood samples were drawn at the time of treatment (0) and at 0.25, 0.5, 1, 2, 4, 6, 12, 24, 48 and 72 hours post treatment. […] This was an indication that Ponazuril, alone, would produce acceptable blood levels that are envisioned to pass the blood-brain barrier, a characteristic required to treat neurological diseases such as those caused by Sarcocystis neurona, Toxoplasma gondii, Neospora caninum and Neospora heugesi.
compound,measurement,setting,value
Cc1cc(-n2c(=O)[nH]c(=O)n(C)c2=O)ccc1Oc1ccc(SC(F)(F)F)cc1 [Toltrazuril],Toltrazuril Level (Table 5b),"[1]; 2.5 mg/Kg oral Toltrazuril daily for 10 days, 240 Hrs, 2.5 mg/kg",2.61 and 2.36 and 4.04
same,Toltrazuril Level (Table 5a),"[1]; 2.5 mg/Kg oral daily for 10 days, 96 Hrs, 2.5 mg/kg",9.85 and 9.09 and 13.1
same,Toltrazuril Level (Table 5a),"[1]; 2.5 mg/Kg oral daily for 10 days, 240 Hrs, 2.5 mg/kg",15.29 and 9.60 and 15.21
same,Toltrazuril Level (Table 5b),"[1]; 5.0 mg/Kg oral Toltrazuril daily for 10 days, 48 Hrs, 5 mg/kg",0.48 and 0.63
same,Toltrazuril Level (Table 5b),"[1]; 5.0 mg/Kg oral Toltrazuril daily for 10 days, 96 Hrs, 5 mg/kg",2.09 and 2.03 and 2.66
same,Toltrazuril Level (Table 5a),"[1]; 5.0 mg/Kg oral daily for 10 days, 48 Hrs, 5 mg/kg",7.28 and 9.18 and 9.26
same,Toltrazuril Level (Table 5a),"[1]; 5.0 mg/Kg oral daily for 10 days, 96 Hrs, 5 mg/kg",14.17 and 14.03 and 18.19
same,Toltrazuril Level (Table 5a),"[1]; 5.0 mg/Kg oral daily for 10 days, 240 Hrs, 5 mg/kg",24.92 and 16.54 and 17.59
same,Toltrazuril Level (Table 5b),"[1]; 7.5 mg/Kg oral Toltrazuril daily for 10 days, 96 Hrs, 7.5 mg/kg",2.69 and 2.89 and 3.09
same,Toltrazuril Level (Table 5b),"[1]; 7.5 mg/Kg oral Toltrazuril daily for 10 days, 240 Hrs, 7.5 mg/kg",6.31 and 6.37 and 7.06
same,Toltrazuril Level (Table 5a),"[1]; 7.5 mg/Kg oral daily for 10 days, 48 Hrs, 7.5 mg/kg",9.90 and 10.46
same,Toltrazuril Level (Table 5a),"[1]; 7.5 mg/Kg oral daily for 10 days, 96 Hrs, 7.5 mg/kg",27.74 and 19.55 and 18.47
same,Toltrazuril Level (Table 5a),"[1]; 7.5 mg/Kg oral daily for 10 days, 240 Hrs, 7.5 mg/kg",30.08 and 24.15 and 23.53
same,AVG Toltrazuril Level (Table 5b),"[1]; 2.5 mg/Kg oral Toltrazuril daily for 10 days, 48 Hrs",1.41
same,AVG Toltrazuril Level (Table 5b),"[1]; 2.5 mg/Kg oral Toltrazuril daily for 10 days, 96 Hrs",1.76
same,AVG Toltrazuril Level (Table 5b),"[1]; 2.5 mg/Kg oral Toltrazuril daily for 10 days, 240 Hrs",3.00
same,AVG Toltrazuril Level (Table 5a),"[1]; 2.5 mg/Kg oral daily for 10 days, 48 Hrs",6.70
same,AVG Toltrazuril Level (Table 5a),"[1]; 2.5 mg/Kg oral daily for 10 days, 96 Hrs",10.68
same,AVG Toltrazuril Level (Table 5a),"[1]; 2.5 mg/Kg oral daily for 10 days, 240 Hrs",13.37
same,AVG Toltrazuril Level (Table 5b),"[1]; 5.0 mg/Kg oral Toltrazuril daily for 10 days, 48 Hrs",0.53
same,AVG Toltrazuril Level (Table 5b),"[1]; 5.0 mg/Kg oral Toltrazuril daily for 10 days, 96 Hrs",2.26
same,AVG Toltrazuril Level (Table 5b),"[1]; 5.0 mg/Kg oral Toltrazuril daily for 10 days, 240 Hrs",5.02
same,AVG Toltrazuril Level (Table 5a),"[1]; 5.0 mg/Kg oral daily for 10 days, 48 Hrs",8.57
same,AVG Toltrazuril Level (Table 5a),"[1]; 5.0 mg/Kg oral daily for 10 days, 96 Hrs",15.46
same,AVG Toltrazuril Level (Table 5a),"[1]; 5.0 mg/Kg oral daily for 10 days, 240 Hrs",19.68
same,AVG Toltrazuril Level (Table 5b),"[1]; 7.5 mg/Kg oral Toltrazuril daily for 10 days, 48 Hrs",2.55
same,AVG Toltrazuril Level (Table 5b),"[1]; 7.5 mg/Kg oral Toltrazuril daily for 10 days, 96 Hrs",2.89
same,AVG Toltrazuril Level (Table 5b),"[1]; 7.5 mg/Kg oral Toltrazuril daily for 10 days, 240 Hrs",6.58
same,AVG Toltrazuril Level (Table 5a),"[1]; 7.5 mg/Kg oral daily for 10 days, 48 Hrs",10.18
same,AVG Toltrazuril Level (Table 5a),"[1]; 7.5 mg/Kg oral daily for 10 days, 96 Hrs",21.92
same,AVG Toltrazuril Level (Table 5a),"[1]; 7.5 mg/Kg oral daily for 10 days, 240 Hrs",25.95
same,AVG Cerebral Spinal Fluid level (Table 5b),[2]; 2.5 mg/Kg oral Toltrazuril daily for 10 days,0.09
same,AVG Cerebral Spinal Fluid level (Table 5a),[2]; 2.5 mg/Kg oral daily for 10 days,0.15
same,AVG Cerebral Spinal Fluid level (Table 5b),[2]; 5.0 mg/Kg oral Toltrazuril daily for 10 days,0.16
same,AVG Cerebral Spinal Fluid level (Table 5a),[2]; 5.0 mg/Kg oral daily for 10 days,0.19
same,AVG Cerebral Spinal Fluid level (Table 5b),[2]; 7.5 mg/Kg oral Toltrazuril daily for 10 days,0.22
same,AVG Cerebral Spinal Fluid level (Table 5a),[2]; 7.5 mg/Kg oral daily for 10 days,0.39
same,Crossing of the blood-brain barrier,"[2]; horses, after oral Toltrazuril daily for 10 days",effectively cross the blood-brain barrier
Cc1cc(-n2c(=O)[nH]c(=O)n(C)c2=O)ccc1Oc1ccc([S+]([O-])C(F)(F)F)cc1 (stereo not drawn) [Toltrazuril Sulfoxide],Levels in serum / bloodstream (in words),[3],significant levels
